Experimental data as given in article PMC4741607 (Oncotarget, 2015).
Like-named read-outs stand apart in the source and are kept apart here.

Assays:
H3255 (EGFR L858R) = assay: Proliferation (CellTiter-Glo), H3255; type: cell-based, human; conditions: H3255, EGFR L858R, 72 hours, read-out: GI50
Protocol: (§2) The human cancer cell lines A549, A431, H3255, H1975, PC-9, HCC827, H23, H460, A549, H358 and H2122 cells were purchased from the American Type Culture Collection (ATCC) (Manassas, VA, USA). […] A549 and A431 were cultured in DMEM media (Corning, USA) with 10% FBS and supplemented with 2% L-glutamine and 1% pen/strep. H3255 was cultured in BEGM media (LONZA, USA) with 10% FBS and supplemented with 2% L-glutamine and 1% pen/strep.
(§3) Cells were grown in 96-well culture plates (2500–3000/well). For adherent cell lines, compounds of various concentrations were added into the plates after cells were cultured for 12 hours. Cell proliferation was determined after treatment with compounds for 72 hours. Cell viability was measured using the CellTiter–Glo assay (Promega, USA), according to the manufacturer's instructions, and luminescence was measured in a multi-label reader (Envision, PerkinElmer, USA). Data were normalized to control groups (DMSO) and represented by the mean of three independent measurements with standard error <20%. GI50 values were calculated using Prism 5.0 (GraphPad Software, San Diego, CA).

H1975 (EGFR L858R/T790M) = assay: Proliferation (CellTiter-Glo), H1975; type: cell-based, human; conditions: H1975, EGFR L858R/T790M, 72 hours, read-out: GI50
Protocol: as §2, §3

PC-9 (EGFR Del19) = assay: Proliferation (CellTiter-Glo), PC-9; type: cell-based, human; conditions: PC-9, EGFR Del19, 72 hours, read-out: GI50
Protocol: as §2, §3

HCC827 (EGFR Del19) = assay: Proliferation (CellTiter-Glo), HCC827; type: cell-based, human; conditions: HCC827, EGFR Del19, 72 hours, read-out: GI50
Protocol: as §2, §3

H23 (EGFR wt) = assay: Proliferation (CellTiter-Glo), H23; type: cell-based, human; conditions: H23, EGFR wt, 72 hours, read-out: GI50
Protocol: as §2, §3

H460 (EGFR wt) = assay: Proliferation (CellTiter-Glo), H460; type: cell-based, human; conditions: H460, EGFR wt, 72 hours, read-out: GI50
Protocol: as §2, §3

A549 (EGFR wt) = assay: Proliferation (CellTiter-Glo), A549; type: cell-based, human; conditions: A549, EGFR wt, 72 hours, read-out: GI50
Protocol: as §2, §3

H358 (EGFR wt) = assay: Proliferation (CellTiter-Glo), H358; type: cell-based, human; conditions: H358, EGFR wt, 72 hours, read-out: GI50
Protocol: as §2, §3

A431 (EGFR wt) = assay: Proliferation (CellTiter-Glo), A431; type: cell-based, human; conditions: A431, EGFR wt, 72 hours, read-out: GI50
Protocol: as §2, §3

H2122 (EGFR wt) = assay: Proliferation (CellTiter-Glo), H2122; type: cell-based, human; conditions: H2122, EGFR wt, 72 hours, read-out: GI50
Protocol: as §2, §3

H1975 cells [1] = conditions: DMSO = 100
Protocol: as §3

H1975 cells [2] = assay: cells; conditions: Homo sapiens, NCI-H1975, read-out: Relative activity (%)
Protocol: as §3

H1975 EGFR (L858R/T790M) = assay: Colony formation assay, H1975; type: cell-based, human; conditions: H1975, 10 days, read-out: EC50 colony formation
Protocol: (§4) The clonogenic activity of the cells was determined by colony forming assays. Every six conditions of drugs were analyzed (10 μM, 1 μM, 0.1 μM, 0.01 μM, 0.001 μM, DMSO). The cells (H1975, PC-9, HCC827, H3255) were seeded at 600 cells/well in 2 ml medium in 6-well plates. Cells were maintained in a humidified 5% CO2 incubator at 37°C for 10 days without changing medium. […] The total number of colonies exceeding 50 cells per colony was counted and data were given as percentage with respect to the controls.

PC-9 EGFR del 19 = assay: Colony formation assay, PC-9; type: cell-based, human; conditions: PC-9, 10 days, read-out: EC50 colony formation
Protocol: as §4

HCC827 EGFR Del 19 = assay: Colony formation assay, HCC827; type: cell-based, human; conditions: HCC827, 10 days, read-out: EC50 colony formation
Protocol: as §4

H3255 EGFR L858R = assay: Colony formation assay, H3255; type: cell-based, human; conditions: H3255, 10 days, read-out: EC50 colony formation
Protocol: as §4

H1975 cells [3] = assay: Cell cycle analysis (FACS), H1975; type: cell-based, human
Protocol: (§5) The cells were fixed in 70% cold ethanol and incubated at −20°C overnight then stained with PI/RNase staining buffer (BD Pharmingen). Flow cytometry was performed using a FACS Calibur (BD), and results were analyzed by ModFit software.

H460 cells = assay: Cell cycle analysis (FACS), H460; type: cell-based, human; conditions: H460, 48h
Protocol: as §5

PC-9 cells = assay: Cell cycle analysis (FACS), PC-9; type: cell-based, human; conditions: PC-9, 24h
Protocol: as §5

H3255 cells = assay: Cell cycle analysis (FACS), H3255; type: cell-based, human; conditions: H3255, 24h
Protocol: as §5

HCC827 cells = assay: Cell cycle analysis (FACS), HCC827; type: cell-based, human; conditions: HCC827, 24 h
Protocol: as §5

PC-9 xenograft = PC-9 xenograft mouse model; type: in vivo, Nude (Nu/Nu) mice
Protocol: (§1) Tumor diameter was measured 3 times weekly. Tumor volumes (V) were calculated by the equation (V = length × width × width/2). ALL experiments and procedures followed the guidelines of the Institutional Animal Care and Use Committees of National Institue of Biological Sciences, Beijing.

H1975 xenograft = H1975 xenograft mouse model; type: in vivo, Nude (Nu/Nu) mice
Protocol: as §1

[4] = system: EGFR Y1068 in PC-9, HCC827, and H3255; assay: EGFR Y1068 auto-phosphorylation in EGFR primary mutant cell lines; type: cell-based, human; conditions: range over PC-9, HCC827, and H3255
Source text: Antibodies were used at 1:1000.
(§6) Cells were then washed with PBS and lysed in cell lysis buffer.

PI3K kinase = assay: PI3K kinases ADP-Glo assay; type: biochemical; conditions: Fig. S8
[5] = system: Akt Thr308 and Ser473 phosphorylation in H1975; assay: Signaling pathway immunoblotting, H1975; type: cell-based, human; conditions: H1975, 4 hours
Source text: Antibodies were used at 1:1000.
as §6

Work on CCC(=O)N1CCC[C@@H](n2nc(-c3ccc(Oc4ccccc4)cc3)c3c(N)ncnc32)C1 [PCI-R] yielded a GI50 (H3255 (EGFR L858R)) greater than 10000 nM, a GI50 (H1975 (EGFR L858R/T790M)) greater than 10000 nM and a GI50 (PC-9 (EGFR Del19)) greater than 10000 nM. It also gave a GI50 (HCC827 (EGFR Del19)) greater than 10000 nM, a GI50 (H23 (EGFR wt)) greater than 10000 nM and a GI50 (H460 (EGFR wt)) greater than 10000 nM. It also gave a GI50 (A549 (EGFR wt)) greater than 10000 nM, a GI50 (H358 (EGFR wt)) greater than 10000 nM and a GI50 (A431 (EGFR wt)) greater than 10000 nM. For the same compound, the GI50 (H2122 (EGFR wt)) was greater than 10000 nM.

CC(=O)Nc1cccc(-n2c(=O)n(C3CC3)c(=O)c3c(Nc4ccc(I)cc4F)n(C)c(=O)c(C)c32)c1 [Trametinib] was tested, and the GI50 (H1975 (EGFR L858R/T790M); Homo sapiens, NCI-H1975) was roughly 1100 nM, the “H1975 cell lines growth” value (H1975 cells [1]; single agent 0.014 μM) was 77.33 and the “H1975 cell lines growth” value (H1975 cells [1]; single agent 0.04 μM) was 79.50. For the same compound, the “H1975 cell lines growth” value (H1975 cells [1]; single agent 0.37 μM) was 80.79, the “H1975 cell lines growth” value (H1975 cells [1]; single agent 1.1 μM) was 77.20 and the “H1975 cell lines growth” value (H1975 cells [1]; single agent 10 μM) was 20.59. It also gave an activity at 1.1 µM (H1975 cells [2]) of 52.2%.

Compound C=CC(=O)Nc1cccc(Oc2nc(Nc3ccc(N4CCN(C)CC4)cc3OC)ncc2Cl)c1 [WZ-4002, WZ4002] has a GI50 (H3255 (EGFR L858R); Homo sapiens, NCI-H3255) of 120 nM, a GI50 (H1975 (EGFR L858R/T790M); Homo sapiens, NCI-H1975) of 300 to 1000 nM and a GI50 (PC-9 (EGFR Del19); Homo sapiens) of 44 nM. The GI50 (HCC827 (EGFR Del19); Homo sapiens) was 19 nM, the GI50 (H23 (EGFR wt); Homo sapiens) was greater than 10000 nM and the GI50 (H460 (EGFR wt); Homo sapiens, NCI-H460) was 4800 nM. For the same compound, the GI50 (A549 (EGFR wt); Homo sapiens) was greater than 10000 nM, the GI50 (H358 (EGFR wt); Homo sapiens, NCI-H358) was greater than 10000 nM and the GI50 (A431 (EGFR wt); Homo sapiens, A-431) was 1000 nM. The GI50 (H2122 (EGFR wt); Homo sapiens, NCI-H2122) was 4500 nM, the EC50 (H1975 EGFR (L858R/T790M)) was 12 nM and the EC50 (H1975 EGFR (L858R/T790M); Homo sapiens, NCI-H1975, 240 h) was 12.2 nM. For the same compound, the EC50 (PC-9 EGFR del 19; Homo sapiens, 240 h) was 11.1 nM, the EC50 (PC-9 EGFR del 19) was 11 nM and the EC50 (HCC827 EGFR Del 19) was 10 nM. The EC50 (HCC827 EGFR Del 19; Homo sapiens, HCC827, 240 h) was 9.65 nM, the EC50 (H3255 EGFR L858R) was 89 nM and the EC50 (H3255 EGFR L858R; Homo sapiens, NCI-H3255, 240 h) was 89.1 nM. The “%G0-G1” value (H1975 cells [3]; H1975, 12h, 0.3 μM) was 70.4%, the “%G2-M” value (H1975 cells [3]; H1975, 12h, 0.3 μM) was 10.17% and the “%G0-G1” value (H1975 cells [3]; H1975, 24h, 0.3 μM) was 80.35%. The “%G2-M” value (H1975 cells [3]; H1975, 24h, 0.3 μM) was 7.63%, the “%G0-G1” value (H1975 cells [3]; H1975, 48h, 0.3 μM) was 94.64% and the “%G2-M” value (H1975 cells [3]; H1975, 48h, 0.3 μM) was 0.95%. The “%G0-G1” value (H460 cells; 0.3 μM) was 71.39%, the “%G2-M” value (H460 cells; 0.3 μM) was 5.15% and the “%G0-G1” value (PC-9 cells; 0.3 μM) was 87.95%. For the same compound, the “%G2-M” value (PC-9 cells; 0.3 μM) was 6.24%, the “%G0-G1” value (H3255 cells; 0.3 μM) was 81.96% and the “%G2-M” value (H3255 cells; 0.3 μM) was 9.90%. The “%G0-G1” value (HCC827 cells; 0.3 μM) was 79.74%, the “%G2-M” value (HCC827 cells; 0.3 μM) was 5.62% and the “anti-tumor activity (tumor growth)” value (PC-9 xenograft; PC-9 xenograft, 25 mg/kg/day QD oral gavage) was “almost completely suppressed the tumor growth”. For the same compound, the “anti-tumor activity (tumor growth)” value (H1975 xenograft; 25 mg/kg/day QD oral gavage) was “almost completely suppressed the tumor growth”.

Compound C=CC(=O)N1CCC[C@@H](n2nc(-c3ccc(Oc4ccccc4)cc3)c3c(N)ncnc32)C1 [ibrutinib, Ibrutinib] has a GI50 (H3255 (EGFR L858R); Homo sapiens, NCI-H3255) of 110 nM, a GI50 (H1975 (EGFR L858R/T790M); Homo sapiens, NCI-H1975) of 1200 nM and a GI50 (PC-9 (EGFR Del19); Homo sapiens) of 50 nM. It also gave a GI50 (HCC827 (EGFR Del19); Homo sapiens) of 63 nM, a GI50 (H23 (EGFR wt); Homo sapiens) greater than 10000 nM and a GI50 (H460 (EGFR wt); Homo sapiens, NCI-H460) greater than 10000 nM. For the same compound, the GI50 (A549 (EGFR wt); Homo sapiens) was greater than 10000 nM, the GI50 (H358 (EGFR wt); Homo sapiens, NCI-H358) was greater than 10000 nM and the GI50 (A431 (EGFR wt); Homo sapiens, A-431) was greater than 10000 nM. The GI50 (H2122 (EGFR wt); Homo sapiens, NCI-H2122) was greater than 10000 nM, the EC50 [4] was 23 to 58 nM and the “%G0-G1” value (H1975 cells [3]; H1975, 12h, 0.3 μM) was 69.44%. The “%G2-M” value (H1975 cells [3]; H1975, 12h, 0.3 μM) was 10.92%, the “%G0-G1” value (H1975 cells [3]; H1975, 12h, 3 μM) was 74.28% and the “%G0-G1” value (H1975 cells [3]; H1975, 24h, 0.3 μM) was 81.96%. For the same compound, the “%G2-M” value (H1975 cells [3]; H1975, 24h, 0.3 μM) was 6.76%, the “%G0-G1” value (H1975 cells [3]; H1975, 24h, 3 μM) was 86.20% and the “%G2-M” value (H1975 cells [3]; H1975, 24h, 3 μM) was 4.83%. For the same compound, the “%G0-G1” value (H1975 cells [3]; H1975, 48h, 0.3 μM) was 92.06%, the “%G2-M” value (H1975 cells [3]; H1975, 48h, 0.3 μM) was 2.43% and the “%G0-G1” value (H1975 cells [3]; H1975, 48h, 3 μM) was 93.79%. The “%G2-M” value (H1975 cells [3]; H1975, 48h, 3 μM) was 1.31%, the “%G0-G1” value (H460 cells; 0.3 μM) was 69.88% and the “%G2-M” value (H460 cells; 0.3 μM) was 5.02%. For the same compound, the “%G0-G1” value (H460 cells; 3 μM) was 70.49%, the “%G2-M” value (H460 cells; 3 μM) was 5.09% and the “%G0-G1” value (PC-9 cells; 0.3 μM) was 81.91%. The “%G2-M” value (PC-9 cells; 0.3 μM) was 10.77%, the “%G0-G1” value (PC-9 cells; 3 μM) was 84.9% and the “%G2-M” value (PC-9 cells; 3 μM) was 8.54%. The “%G0-G1” value (H3255 cells; 0.3 μM) was 82.82%, the “%G2-M” value (H3255 cells; 0.3 μM) was 9.73% and the “%G0-G1” value (H3255 cells; 3 μM) was 89.05%. For the same compound, the “%G2-M” value (H3255 cells; 3 μM) was 5.24%, the “%G0-G1” value (HCC827 cells; 0.3 μM) was 78.26% and the “%G2-M” value (HCC827 cells; 0.3 μM) was 6.86%. The “%G0-G1” value (HCC827 cells; 3 μM) was 80.37%, the “%G2-M” value (HCC827 cells; 3 μM) was 5.91% and the “anti-tumor activity (tumor progression)” value (PC-9 xenograft; PC-9 xenograft, 25, 50, 100 mg/Kg BID oral gavage, 22 days) was “tumor progression slow down efficacy”. For the same compound, the “anti-tumor activity (tumor progression)” value (H1975 xenograft; 50 mg/kg BID oral gavage, 23-day) was “slowed down tumor progression”, the “anti-tumor activity, higher dosage versus 50 mg/kg BID” value (H1975 xenograft; 100 mg/Kg BID) was “did not improve efficacy” and the “enzymatic activity against PI3K kinase” value (PI3K kinase) was “did not have apparent enzymatic activity”. The “phosphorylation of Akt Thr308 and Ser473” value [5] was “significantly affected the phosphorylation of Akt Thr308 and Ser473”, the “H1975 cell lines growth” value (H1975 cells [1]; single agent 0.37 μM) was 43.77 and the “H1975 cell lines growth” value (H1975 cells [1]; single agent 1.1 μM) was 34.56. The activity at 1.1 µM (H1975 cells [2]) was 52.3%.
